Measured values taken from patent US7384971B2, “Phytochemicals for the treatment of cervical dysplasia” (BioResponse L.L.C., priority 1999, dated 2008).

Experiments:
women with mastalgia = conditions: cited from earlier work
women with endometriosis = conditions: endometriosis therapy; cited from earlier work
[1] = tested on: 2-hydroxy estrogen metabolism; conditions: women; cited from earlier work
[2] = tested on: recurrent laryngeal papillomatosis and cervical dysplasia; conditions: dietary supplementation; cited from earlier work
[3] = tested on: carcinogen-induced breast cancer; conditions: oral; cited from earlier work
[4] = tested on: person with chronic recurring breast pain (mastalgia); assay: Case study: processed DIM for chronic recurring breast pain (Example 5); format: in vivo, human; set-up: key to Typical Breast Pain Score / Typical Breast Soreness Score: 0 = none; 1 = mild; 2 = moderate; 3 = significant; 4 = severe; conditions: After DIM, 225 mg per day, one month
Excerpt: The purpose of this study was to determine whether dietary supplementation with the cruicferous phytochemical, Diindolylmethane (DIM) is effective in relieving the pain of this chronic condition. patient one is a person referred for evaluation of perimenopausal symptoms of chronic recurring breast pain. They had been troubled by breast pain for many years with recent worsening in their symptoms. They had undergone a vaginal hysterectomy due to excessive and painful menstrual periods. Since their ovaries were left intact, they have received no Hormonal Replacement Therapy (HRT). During the last 4 years they experienced a monthly cycle of breast pain for about one week of each month. The breast pain was bilateral, associated with significant tenderness to touch, and a discomfort described as “heaviness or swelling.” A trial of a women's health supplement containing Don Quai provided no relief. Evaluation included a baseline morning urine sample and close assessment of their symptoms of breast pain during the ensuing month. Following this, bioavailable DIM was begun as a supplement at 225 mg per day together with increased dietary fiber. […] A second urine sample was obtained after one month on the DIM supplement.

colon cancer cells = conditions: cited from earlier work
[5] = tested on: person with severe endometriosis; assay: Case study: processed DIM for endometriosis pain (Example 8); format: in vivo, human
Excerpt: patient two is a slender and athletic person who sought alternatives in their management of severe endometriosis. Their symptoms of recurrent mid-cycle and menstrually associated pain have been diagnosed as due to endometriosis based on pelvic laparoscopy. This procedure confirmed aggressive endometriosis with ectopic endometrial implants removed from the pelvis and associated with intestinal serosal spread. A history of 2 years of intense pelvic pain at mid-cycle and during menstrual flow was reported prior to the laparoscopy. Their parent gives a history of painful menstrual periods […]. They went on to develop ovarian cancer requiring radical surgery […]. A maternal aunt developed cervical cancer requiring surgery. […] Like the patient, a younger sibling has been troubled with painful menstrual periods and pelvic pain leading to laparoscopy and the diagnosis of endometriosis.
Following the patient's laparoscopy, one menstrual period was still associated with significant pain. Supplementation with bioavailable processed DIM was begun approximately 6 weeks following the laparoscopy. Initial supplementation with bioavailable processed DIM provided 300 mg/day for one month which was reduced to 150 mg/day thereafter. […] The patient continued DIM supplementation for about one year.

serum Ca-125 antigen = assay: Serial serum Ca-125 antigen levels in endometriosis patient; format: in vivo, human
Excerpt: Diagnosis of the endometriosis and reduction in pain severity correlated with serial levels of serum Ca-125 antigen. Ca-125 is a serum marker with documented usefulness in monitoring the activity of endometriosis in a given patient (Pittaway D E and Fayez J A, 1986, “The use of CA-125 in the diagnosis and management of endometriosis”, Fertil Steril 46:790).

[6] = tested on: non-cancerous colon cells; conditions: cited from earlier work
MCF7 breast cancer cells = conditions: tested in the absence of estrogen; cited from earlier work
[7] = tested on: 2-hydroxy and 16-hydroxy estrogen metabolites; assay: Urinary estrogen metabolites, Elisa based assay (Estratest); format: in vivo, human; conditions: After DIM, 225 mg per day
Experimental: Evaluation included a baseline morning urine sample and close assessment of their symptoms of breast pain during the ensuing month. Following this, bioavailable DIM was begun as a supplement at 225 mg per day together with increased dietary fiber. […] A second urine sample was obtained after one month on the DIM supplement.
The urine samples were subsequently analyzed for their levels of 2-hydroxy and 16-hydroxy estrogen metabolites, using an Elisa based assay (Estratest, Immunacare, Inc., Bethlehem, Pa.).

[8] = Follow up Visit #3, Use of DIM YES
[9] = Follow-up Visit #1, Use of DIM YES
[10] = Follow-up Visit #2, Use of DIM YES

SMILES: C#C[C@]1(O)CC[C@H]2[C@@H]3CCC4=Cc5oncc5C[C@]4(C)[C@H]3CC[C@@]21C [Danazol]
- Response rate in mastalgia (women with mastalgia; severe breast pain): 70%
- Women experiencing adverse side effects (women with endometriosis): up to 80%

SMILES: CC(=O)O[C@]1(C(C)=O)CC[C@H]2[C@@H]3C[C@H](C)C4=CC(=O)CC[C@]4(C)[C@H]3CC[C@@]21C [medroxyprogesterone acetate]
- Relief of mastalgia versus placebo (women with mastalgia; controlled trial): no better than placebo

SMILES: OCc1c[nH]c2ccccc12 [I3C, Indole-3-carbinol]
- Effect on 2-hydroxy estrogen metabolism [1]: increase 2-hydroxy estrogen metabolism
- Clinical outcome [2]: some clinical improvement

SMILES: c1ccc2c(Cc3c[nH]c4ccccc34)c[nH]c2c1 [DIM, 3,3′-Diindolylmethane]
- Effect on tumor growth [3]: impede the growth
- Typical Breast Soreness Score (in words) [4]: Absent
- Typical Breast Pain Score (in words) ([4]; one patient): Absent
- Typical Breast Pain Score ([4]; score out of 4): 0/4
- Typical Breast Soreness Score ([4]; score out of 4): 0/4
- Effect on cell growth (colon cancer cells): selective growth inhibitory activity
- Pain Level [5, 8]: Improved
- Pain Level [5, 9]: Improved
- Pain Level [5, 10]: Improved
- Comfort of menstrual periods / need for analgesics ([5]; supplementation for about one year): more comfortable, no longer requiring analgesics
- Ca-125 Antigen (serum Ca-125 antigen; [8]): 34.0
- Ca-125 Antigen (serum Ca-125 antigen; [9]): 26.4
- Ca-125 Antigen (serum Ca-125 antigen; [10]): 23.2
- Growth inhibitory activity [6]: not observed
- Effect on cell growth (MCF7 breast cancer cells): promoted growth
- 2-Hydroxy estrone level, urinary ([7]; morning urine after one month): 26.4 ng/ml/mg Creatinine
- 2-Hydroxy to 16-Hyroxy estrone ratio ([7]; urine after one month): 5.08
- 16-Hydroxy estrone level, urinary ([7]; urine after one month): 5.1 ng/ml/mg Creatinine
- Total urinary estrone metabolites ([7]; urine after one month): 31.3 ng/ml/mg Creatinine
